Results as given in PMC10610188, “Structure–Activity Relationship Studies of Chalcones and Diarylpentanoids with Antitumor Activity: Potency and Selectivity Optimization” (Pharmaceuticals, 2023).
Read-outs that look alike come from different tables or passages of the source.

Key:
HCT116 p53^−/− cells [1] = assay: SRB growth inhibition assay in HCT116 p53-/- cells; assay type: cell-based, human; conditions: for SI1: Selective index 1: GI50 of HCT116 p53^−/−/GI50 of HCT116 p53^+/+
Experimental: (§1) To study the in vitro antitumor potential of chalcone CM-M345 (1) and diarylpentanoid BP-C4 (2) analogues, the sulforhodamine B (SRB) assay was used to evaluate the antiproliferative activity in human colorectal HCT116 cancer cells. To assess their cytotoxicity toward normal cells, the antiproliferative effect of these compounds was also tested in human fibroblasts HFF-1 cells. In order to confirm if inhibition of proliferation was associated with p53 activation in HCT116 p53^+/+ cells, all compounds were also tested in HCT116 cells in which p53 was knocked out (HCT116 p53^−/−) and the selective index was calculated and compared to the compounds CM-M345 (1) and BP-C4 (2), for which p53-dependent antiproliferative activity was previously reported by our research group (Table 1).
(§2) The colorectal adenocarcinoma HCT116 cells (HCT116 p53^+/+) and its p53-null isogenic derivative (HCT116 p53^−/−) were given by Prof. Vogelstein (The Johns Hopkins Kimmel Cancer Center, Baltimore, USA); the normal human fibroblasts HFF-1 cell lines were from ATCC (Rockville, MD, USA). Human cells were cultured in RPMI-1640 with UltraGlutamine (Lonza, VWR, Portugal) with 10% FBS (Gibco, Alfagene, Portugal) at 37 °C with 5% CO2. The SH-SY5Y cells were cultured in DMEM/F-12 (Lonza) and 10% FBS and 2mM L-glutamine (Gibco). The cells were incubated at 37 °C in a humidified atmosphere of 5% CO2. Mycoplasma was routinely checked using the MycoAlert™ PLUS kit (Lonza). […]

HFF-1 cells [2] = assay: SRB growth inhibition assay in normal fibroblasts HFF-1; assay type: cell-based, human; conditions: for SI2: Selective index 2: GI50 of HFF-1/GI50 of HCT116 p53^+/+
Experimental: as §1, §2

HCT116 p53^+/+ cells [3] = conditions: SRB assay; ref Moreira et al. [21]; cited from earlier work
HCT116 p53^−/− cells [4] = conditions: SRB assay; ref Moreira et al. [21]; cited from earlier work
HFF-1 cells [5] = test system: HFF-1 cells; parameters: method as in Moreira et al. [21]; conditions: SRB assay; ref Moreira et al. [21]; cited from earlier work
human cancer cells = test system: human cancer cells; parameters: method as in PMID 34170069, doi:10.1016/j.arabjc.2016.04.015; conditions: read-out: GI50 against human cancer cells; cited from earlier work
HCT116 p53^+/+ cells [6] = assay: SRB growth inhibition assay in HCT116 p53+/+ cells; assay type: cell-based, human; conditions: SRB assay, 48 h of treatment
Experimental: as §1, §2

HCT116 p53^+/+ cells [7] = assay: Annexin V-FITC apoptosis analysis by flow cytometry; assay type: cell-based, human; conditions: 5 µM, 48 h
Experimental: The 1.5 × 10^5 HCT116 p53^+/+ cells/well were seeded in 6-well plates and then treated with 5 µM 17 for 48 h. For the apoptosis analysis, an Annexin V-FITC Apoptosis Detection Kit I (BD Biosciences, Franklin Lakes, NJ, USA) was used following the manufacturer’s instructions. An AccuriTM C6 flow cytometer and the BD Accuri C6 software were used for data acquisition.

PARP = assay: Western blot, PARP cleavage; assay type: cell-based, human; conditions: 5 µM, 48 h, HCT116 p53^+/+
Experimental: (§3) For Western blotting, 1.5 × 10^5 cells (per well) of HCT116 p53^+/+ cells were seeded in six-well plates and allowed to adhere for 24 h, followed by treatment with 5 μM 17 for 48 h. Protein extracts obtained from the human cancer cells were quantified using the Pierce™ BCA Protein Assay Kit (Thermo Scientific, Taper, Sintra, Portugal), according to the manufacturer’s instructions. The proteins were then run in SDS-PAGE and transferred to a Whatman nitrocellulose membrane from Protan (VWR, Carnaxide, Portugal). Proteins were detected using the primary antibodies anti-p53 (Santa Cruz Biotechnology, Dallas, TX, USA, SC-126, 1:5000), anti-BCL-2 (Santa Cruz Biotechnology, SC-7382, 1:200), anti-PARP (Cell Signaling, #9542, 1:1000), and anti-GAPDH (Santa Cruz Biotechnology, SC-32233, 1:10,000), followed by HRP-conjugated secondary antibodies anti-mouse (Santa Cruz Biotechnology, SC-2005, 1:2500) and anti-rabbit (Santa Cruz Biotechnology, SC-2006, 1:2500). GAPDH was used as a loading control. The signal was detected with an ECL Amersham kit from GE Healthcare (VWR) and the ChemiDoc™ MP Imaging System (Bio-Rad, Amadora, Portugal).

Bcl-2 = assay: Western blot, Bcl-2 protein levels; assay type: cell-based, human; conditions: 5 µM, 48 h, HCT116 p53^+/+
Experimental: as §3

p53 = assay: Western blot, p53 protein levels; assay type: cell-based, human; conditions: 5 µM, 48 h, HCT116 p53^+/+
Experimental: as §3

| SMILES | SI1: Selective index 1 (HCT116 p53^−/− cells [1]) | SI2: Selective index 2 (HFF-1 cells [2]) | GI50 (HCT116 p53^+/+ cells [3]) | GI50 (HCT116 p53^−/− cells [4]) | GI50 (HFF-1 cells [5]) | GI50 (human cancer cells) | GI50 (HCT116 p53^+/+ cells [6]; Homo sapiens, HCT-116, 48 h) | GI50 (HCT116 p53^+/+ cells [6]) | GI50 (HCT116 p53^−/− cells [1]; Homo sapiens, HCT-116, SRB assay, 48 h of treatment) | GI50 value in HFF-1 cells relative to HCT116 p53^+/+ cells (fold higher) (HFF-1 cells [2]) | GI50 (HFF-1 cells [2]; Homo sapiens, HFF-1, SRB assay, 48 h of treatment) | apoptosis (annexin-positive cells) (HCT116 p53^+/+ cells [7]) | PARP cleavage (Western blot) (PARP) | Bcl-2 protein levels (Western blot) (Bcl-2) | p53 protein levels (Western blot) (p53) |
| --- | --- | --- | --- | --- | --- | --- | --- | --- | --- | --- | --- | --- | --- | --- | --- |
| O=C1/C(=C/c2ccc(Cl)cc2)COC/C1=C\c1ccc(Cl)cc1 [BP-C4 (2), 3,5-bis((E)-4-chlorobenzylidene)tetrahydro-4H-pyran-4-one] | 1.62 | 5.79 | 6.25 ± 1.18 µM | 10.1 ± 0.47 µM | 36.2 ± 5.54 µM | 6.25 µM | – | – | – | – | – | – | – | – | – |
| O=C(/C=C/c1ccc(Cl)cc1)/C=C/c1ccc(Cl)cc1 [Compound 17] | 1.63 | 12.43 | – | – | – | – | 2.8 µM | 2.18 ± 0.59 µM | 3.55 ± 0.05 µM | 12 fold | 27.1 ± 1.25 µM | induced apoptosis | PARP cleavage | depletion of the protein levels of the anti-apoptotic protein Bcl-2 | did not interfere with the p53 protein levels |
